Measurements published in US20250145589A1, “PYRIDINE DERIVATIVE AND USE THEREOF” (SICHUAN HUIYU PHARMACEUTICAL CO., LTD., priority 2021, published 2025).
Where two headings read alike, the source gives them in different places.

Key:
KRAS^G12C-SOS1 = KRAS^G12C-SOS1 (Homo sapiens (Human), UniProt P01116, G12C); experiment: HTRF KRAS G12C/SOS1 binding assay; settings: Table 5
Procedure, shortened: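 Compound was serially diluted five-fold over eight points, with a 2 mM DMSO stock. After anti-tag-Tb3+ and anti-tag-XL665 were added, plates were incubated 3 h at 4 °C and read by HTRF (ex 337 nm, em 620/665 nm ratio). IC50 values come from four-parameter variable-slope fits.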

PI3Kδ = PI3Kδ (Homo sapiens (Human), UniProt O00329); experiment: Inhibition of PI3Kδ efficacy assay (ADP-Glo kinase assay); format: biochemical; settings: read-out: PI3Kδ inhibitory activity (IC50)
Chain of PI3Kδ (O00329 whole entry): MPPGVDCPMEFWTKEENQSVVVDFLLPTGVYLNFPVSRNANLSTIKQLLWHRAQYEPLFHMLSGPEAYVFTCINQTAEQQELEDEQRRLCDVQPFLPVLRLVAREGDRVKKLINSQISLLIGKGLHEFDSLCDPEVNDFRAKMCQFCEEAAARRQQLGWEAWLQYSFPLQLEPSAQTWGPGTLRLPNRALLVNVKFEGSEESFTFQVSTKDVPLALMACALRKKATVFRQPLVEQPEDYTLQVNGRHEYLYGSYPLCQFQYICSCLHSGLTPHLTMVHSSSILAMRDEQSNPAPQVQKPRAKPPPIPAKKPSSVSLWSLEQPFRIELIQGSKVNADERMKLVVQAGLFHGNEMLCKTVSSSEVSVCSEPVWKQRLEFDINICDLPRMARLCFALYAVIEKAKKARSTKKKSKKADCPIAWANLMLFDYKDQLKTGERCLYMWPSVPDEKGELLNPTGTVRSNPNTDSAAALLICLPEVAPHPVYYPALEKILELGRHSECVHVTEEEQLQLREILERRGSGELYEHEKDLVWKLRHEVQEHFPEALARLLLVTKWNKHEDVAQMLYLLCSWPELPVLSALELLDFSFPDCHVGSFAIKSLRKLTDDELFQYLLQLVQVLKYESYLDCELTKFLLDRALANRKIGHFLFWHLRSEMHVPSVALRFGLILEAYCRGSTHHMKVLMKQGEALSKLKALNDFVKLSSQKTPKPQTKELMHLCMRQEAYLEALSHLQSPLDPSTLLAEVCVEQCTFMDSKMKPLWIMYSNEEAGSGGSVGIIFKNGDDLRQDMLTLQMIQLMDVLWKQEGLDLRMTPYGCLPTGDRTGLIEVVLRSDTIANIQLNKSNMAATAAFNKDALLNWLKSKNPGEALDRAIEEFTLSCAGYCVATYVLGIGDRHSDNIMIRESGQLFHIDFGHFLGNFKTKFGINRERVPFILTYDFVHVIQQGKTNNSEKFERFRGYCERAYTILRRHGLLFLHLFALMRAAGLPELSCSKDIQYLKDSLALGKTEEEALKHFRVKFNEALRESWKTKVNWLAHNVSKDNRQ
Chain of PI3Kδ (P27986 whole entry partner): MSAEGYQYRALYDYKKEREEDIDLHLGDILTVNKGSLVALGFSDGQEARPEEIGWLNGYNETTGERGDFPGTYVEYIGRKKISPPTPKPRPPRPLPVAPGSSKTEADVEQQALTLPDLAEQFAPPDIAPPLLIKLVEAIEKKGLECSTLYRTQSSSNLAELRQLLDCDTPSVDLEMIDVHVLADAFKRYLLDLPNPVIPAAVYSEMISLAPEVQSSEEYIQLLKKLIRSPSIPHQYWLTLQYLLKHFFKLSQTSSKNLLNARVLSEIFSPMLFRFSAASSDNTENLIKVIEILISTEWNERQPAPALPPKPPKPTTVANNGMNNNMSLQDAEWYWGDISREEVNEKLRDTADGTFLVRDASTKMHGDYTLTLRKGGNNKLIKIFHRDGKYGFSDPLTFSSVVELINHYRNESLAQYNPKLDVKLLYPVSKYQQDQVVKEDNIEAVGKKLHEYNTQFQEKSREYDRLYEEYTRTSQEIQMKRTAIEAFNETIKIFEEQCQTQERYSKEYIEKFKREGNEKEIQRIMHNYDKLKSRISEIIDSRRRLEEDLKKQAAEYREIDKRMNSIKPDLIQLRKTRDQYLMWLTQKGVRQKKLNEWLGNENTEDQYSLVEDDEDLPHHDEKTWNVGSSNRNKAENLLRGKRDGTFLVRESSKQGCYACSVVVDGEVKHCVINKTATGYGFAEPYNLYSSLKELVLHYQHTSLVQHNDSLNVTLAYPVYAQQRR
Procedure, shortened: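 Luminescent ADP-Glo readout of PI3Kδ: after a 60 min RT reaction with PI/ATP substrate, ATP depletion (40 min) and ADP detection (40 min) steps followed. Compounds tested as eight five-fold serial dilutions; inhibition rates fitted to log(inhibitor) vs. response, variable slope, for IC50.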

PI3Kα = PI3Kα (Homo sapiens (Human), UniProt P42336); experiment: Inhibition of PI3Kα efficacy assay (ADP-Glo kinase assay); format: biochemical; settings: read-out: PI3Kα inhibitory activity (IC50)
Chain of PI3Kα (P42336 whole entry): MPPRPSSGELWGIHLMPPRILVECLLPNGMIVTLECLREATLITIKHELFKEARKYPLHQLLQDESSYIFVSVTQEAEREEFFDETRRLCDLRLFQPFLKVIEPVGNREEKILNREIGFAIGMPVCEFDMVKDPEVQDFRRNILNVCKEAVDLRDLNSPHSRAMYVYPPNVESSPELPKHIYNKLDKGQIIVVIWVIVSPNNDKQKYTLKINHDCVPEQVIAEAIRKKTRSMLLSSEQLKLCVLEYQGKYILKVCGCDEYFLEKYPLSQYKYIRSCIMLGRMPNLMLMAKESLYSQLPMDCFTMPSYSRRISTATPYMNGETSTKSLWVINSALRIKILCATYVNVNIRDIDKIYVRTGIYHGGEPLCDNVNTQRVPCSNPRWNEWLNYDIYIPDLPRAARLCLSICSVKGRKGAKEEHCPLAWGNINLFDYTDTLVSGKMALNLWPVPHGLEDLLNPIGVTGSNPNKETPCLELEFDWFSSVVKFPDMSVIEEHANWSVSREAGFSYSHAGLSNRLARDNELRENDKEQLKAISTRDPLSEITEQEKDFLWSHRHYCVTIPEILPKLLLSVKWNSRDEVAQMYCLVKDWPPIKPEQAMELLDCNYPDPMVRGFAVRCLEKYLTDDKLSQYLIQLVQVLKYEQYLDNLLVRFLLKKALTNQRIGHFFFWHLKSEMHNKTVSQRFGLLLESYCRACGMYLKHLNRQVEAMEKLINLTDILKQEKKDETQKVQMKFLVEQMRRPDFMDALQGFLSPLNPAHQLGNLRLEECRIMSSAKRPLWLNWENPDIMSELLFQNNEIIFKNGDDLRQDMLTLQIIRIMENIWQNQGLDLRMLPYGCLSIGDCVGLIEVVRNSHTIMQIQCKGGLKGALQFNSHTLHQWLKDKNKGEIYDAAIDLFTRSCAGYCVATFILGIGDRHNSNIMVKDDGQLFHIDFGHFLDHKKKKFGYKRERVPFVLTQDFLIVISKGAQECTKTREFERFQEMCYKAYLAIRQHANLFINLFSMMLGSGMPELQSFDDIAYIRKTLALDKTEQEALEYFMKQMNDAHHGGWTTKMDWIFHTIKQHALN
Chain of PI3Kα (P27986 whole entry partner): as the sequence (P27986 whole entry partner) above
Procedure, shortened: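 Eight five-fold dilutions of compound (2 mM DMSO stock) tested; kinase reaction with PI and ATP ran 60 min at RT, followed by ADP-Glo and detection reagent steps of 40 min each. Four-parameter logistic fitting gave IC50 values.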

Chain of KRAS^G12C-SOS1 (P01116-2 other isoform, or with tags, fused parts or gaps G12C): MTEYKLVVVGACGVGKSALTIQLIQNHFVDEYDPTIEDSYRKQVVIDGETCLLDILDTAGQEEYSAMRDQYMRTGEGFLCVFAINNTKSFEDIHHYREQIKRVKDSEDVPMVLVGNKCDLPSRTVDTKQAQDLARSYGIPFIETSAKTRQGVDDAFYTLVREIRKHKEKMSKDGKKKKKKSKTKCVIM

| Compound | IC50 (KRAS^G12C-SOS1) [µM] | IC50 (PI3Kδ; Table 2) [µM] | IC50 (PI3Kα; Table 2) [µM] | other results |
| --- | --- | --- | --- | --- |
| COc1ncc(-c2ccc3ncnc(N4CCN(C(=O)/C=C/C(C)=O)CC4)c3c2)cc1NS(=O)(=O)c1ccc(F)cc1F [Example 6, (E)-2,4-difluoro-N-(2-methoxy-5-(4-(4-(4-oxopent-2-enoyl)piperazin-1-yl)quinazoline-6-yl)pyridin-3-yl)benzenesulfonamide] | 0.323 | – | – | IC50 (PI3Kδ; Table 1): 0.0109 µM |
| C=CC(=O)N1CCN(c2ncnc3ccc(-c4cnc(OC)c(NS(=O)(=O)c5ccc(F)cc5F)c4)cc23)[C@@H](C)C1 [Example 7, (S)—N-(5-(4-(4-acryloyl-2-methylpiperazin-1-yl)quinazolin-6-yl)-2-methoxypyridin-3-yl)-2,4-difluorobenzenesulfonamide] | – | – | – | IC50 (PI3Kδ; Table 1): 0.012 µM; IC50 (PI3Kα; Table 1): 0.0014 µM |
| COc1ncc(-c2ccc3ncnc(N4CCN(C(=O)/C=C/n5ccnn5)CC4)c3c2)cc1NS(=O)(=O)c1ccc(F)cc1F [Example 10, (E)-N-(5-(4-(4-(3-(1H-1,2,3-triazol-1-yl)acryloyl)piperazin-1-yl)quinazolin-6-yl)-2-methoxypyridin-3-yl)-2,4-difluorobenzenesulfonamide] | – | – | – | IC50 (PI3Kδ; Table 1): 0.0167 µM; IC50 (PI3Kα; Table 1): 0.00044 µM |
| COc1ncc(-c2ccc3ncnc(N4C[C@@H](C)N(C(=O)/C=C/C(C)=O)C[C@@H]4C)c3c2)cc1NS(=O)(=O)c1ccc(F)cc1F [Example 15, N-(5-(4-((2S,5R)-2,5-dimethyl-4-((E)-4-oxopent-2-enoyl)piperazin-1-yl)quinazolin-6-yl)-2-methoxypyridin-3-yl)-2,4-difluorobenzenesulfonamide] | 0.558 | – | – | IC50 (PI3Kδ; Table 1): 0.13 µM; IC50 (PI3Kα; Table 1): 0.0102 µM |
| CCCC(=O)/C=C/C(=O)N1CCN(c2ncnc3ccc(-c4cnc(OC)c(NS(=O)(=O)c5ccc(F)cc5F)c4)cc23)CC1 [Example 17, (E)-2,4-difluoro-N-(2-methoxy-5-(4-(4-(4-oxohept-2-enoyl)piperazin-1-yl)quinazolin-6-yl)pyridin-3-yl)benzenesulfonamide] | 0.313 | – | – | IC50 (PI3Kδ; Table 1): 0.031 µM; IC50 (PI3Kα; Table 1): 0.0023 µM |
| COc1ncc(-c2ccc3ncnc(N4CCC5(CC4)CN(C(=O)/C=C/C(C)=O)C5)c3c2)cc1NS(=O)(=O)c1ccc(F)cc1F [Example 20, (E)-2,4-difluoro-N-(2-methoxy-5-(4-(2-(4-oxopent-2-enoyl)-2,7-diazaspiro[3.5]nonan-7-yl)quinazolin-6-yl)pyridin-3-yl)benzenesulfonamide] | 0.239 | – | – | IC50 (PI3Kδ; Table 1): 0.212 µM; IC50 (PI3Kα; Table 1): 0.0074 µM |
| COc1ncc(-c2ccc3ncnc(N4CCN(C(=O)/C=C/C(C)=O)CC4)c3c2)cc1NS(=O)(=O)c1c(F)cccc1F [Example 22, (E)-2,6-difluoro-N-(2-methoxy-5-(4-(4-(4-oxopent-2-enoyl)piperazin-1-yl)quinazolin-6-yl)pyridin-3-yl)benzenesulfonamide] | 0.149 | – | – | IC50 (PI3Kδ; Table 1): 0.0828 µM; IC50 (PI3Kα; Table 1): 0.0116 µM |
| COc1ncc(-c2ccc3ncnc(N4CCC5(CN(C(=O)/C=C/C(C)=O)C5)C4)c3c2)cc1NS(=O)(=O)c1c(F)cccc1F [Example 42] | 0.109 | 0.0165 | – | IC50 (PI3Kα): 0.0015 µM |
| COc1ncc(-c2ccc3ncnc(N4CCN(C(=O)/C=C/C(C)=O)C[C@@H]4C)c3c2)cc1NS(=O)(=O)c1c(F)cccc1F [Example 46, (S,E)-2,6-difluoro-N-(2-methoxy-5-(4-(2-methyl-4-(4-oxopent-2-enoyl)piperazin-1-yl)quinazolin-6-yl)pyridin-3-yl) benzenesulfonamide] | 0.167 | 0.0363 | 0.0017 | – |
| COc1ncc(-c2ccc3ncnc(N4CCC5(CC4)CN(C(=O)/C=C/C(C)=O)C5)c3c2)cc1NS(=O)(=O)c1c(F)cccc1F [Example 49, (E)-2,6-difluoro-N-(2-methoxy-5-(4-(2-(4-oxopent-2-enoyl)-2,7-diazaspiro[3.5]nonan-7-yl)quinazolin-6-yl)pyridin-3-yl) benzenesulfonamide] | 0.225 | 0.0149 | 0.0026 | – |
| COc1ncc(-c2ccc3ncnc(N4C[C@@H](C)N(C(=O)/C=C/C(C)=O)C[C@@H]4C)c3c2)cc1NS(=O)(=O)c1c(F)cccc1F [Example 51, N-(5-(4-((2S,5R)-2,5-dimethyl-4-((E)-4-oxopent-2-enoyl)piperazin-1-yl)quinazolin-6-yl)-2-methoxypyridin-3-yl)-2,6-difluorobenzene-sulfonamide] | 0.942 | 0.0192 | 0.0056 | – |
| COc1ncc(-c2ccc3ncnc(N4CCN(C5CN(C(=O)/C=C/C(C)=O)C5)CC4)c3c2)cc1NS(=O)(=O)c1ccc(F)cc1F [Example 56, (E)-2,4-difluoro-N-(2-methoxy-5-(4-(4-(1-(4-oxopent-2-enoyl)azetidin-3-yl)piperazin-1-yl)quinazolin-6-yl)pyridin-3-yl)benzenesulfon-amide] | 0.471 | 0.0372 | 0.0044 | – |
| COc1ncc(-c2ccc3ncnc(N4CCC5(CC=CC5=O)CC4)c3c2)cc1NS(=O)(=O)c1ccc(F)cc1F [Example 70, 2,4-difluoro-N-(2-methoxy-5-(4-(1-oxo-8-azaspiro[4,5]dec-2-en-8-yl)quinazolin-6-yl)pyridin-3-yl)benzenesulfonamide] | – | 0.035 | 0.0088 | – |
| COc1ncc(-c2ccc3ncnc(N4CCN(C(=O)/C=C/C(C)=O)CC4)c3c2)cc1NS(=O)(=O)c1cccc(F)c1F [Example 90, (E)-2,3-difluoro-N-(2-methoxy-5-(4-(4-(4-oxopent-2-enoyl)piperazin-1-yl)quinazolin-6-yl)pyridin-3-yl)benzenesulfonamide] | – | 0.0237 | 0.004 | – |
| COc1ncc(-c2ccc3ncnc(N4CCN(C(=O)/C=C/C(C)=O)CC4)c3c2)cc1NS(=O)(=O)c1ccccc1F [Example 91, (E)-2-fluoro-N-(2-methoxy-5-(4-(4-(4-oxopent-2-enoyl)piperazin-1-yl)quinazolin-6-yl)pyridin-3-yl)benzenesulfonamide] | 0.173 | 0.0615 | 0.0026 | – |
| COc1ncc(-c2ccc3ncnc(N4CCN(C(=O)/C=C/C(C)=O)CC4)c3c2)cc1NS(=O)(=O)c1ccc(F)cc1 [Example 92, (E)-4-fluoro-N-(2-methoxy-5-(4-(4-(4-oxopent-2-enoyl)piperazin-1-yl)quinazolin-6-yl)pyridin-3-yl)benzenesulfonamide] | 0.369 | 0.0511 | 0.0064 | – |
| COc1ncc(-c2ccc3ncnc(N4CCN(C(=O)/C=C/C(C)=O)CC4)c3c2)cc1NS(=O)(=O)c1ccccc1C [Example 93, (E)-N-(2-methoxy-5-(4-(4-(4-oxopent-2-enoyl)piperazin-1-yl)quinazolin-6-yl)pyridin-3-yl)-2-methylbenzenesulfonamide] | 0.344 | 0.0729 | 0.006 | – |
| COc1ncc(-c2ccc3ncnc(N4CCN(C(=O)/C=C/C(C)=O)CC4)c3c2)cc1NS(=O)(=O)c1cc(F)ccc1F [Example 94, (E)-2,5-difluoro-N-(2-methoxy-5-(4-(4-(4-oxopent-2-enoyl)piperazin-1-yl)quinazolin-6-yl)pyridin-3-yl)benzenesulfonamide] | 0.189 | 0.0567 | 0.011 | – |
| COc1ncc(-c2ccc3ncnc(N4CCN(C(=O)/C=C/C(C)=O)CC4)c3c2)cc1NS(=O)(=O)c1c(F)cc(F)cc1F [Example 99, (E)-2,4,6-trifluoro-N-(2-methoxy-5-(4-(4-(4-oxopent-2-enoyl)piperazin-1-yl)quinazolin-6-yl)pyridin-3-yl)benzenesulfonamide] | 0.188 | 0.0079 | 0.006 | – |
| COc1ncc(-c2ccc3ncnc(N4CCN(C(=O)/C=C/C(C)=O)CC4)c3c2)cc1NS(=O)(=O)c1ccc(C#N)cc1F [Example 123, (E)-4-cyano-2-fluoro-N-(2-methoxy-5-(4-(4-(4-oxopent-2-enoyl)piperazin-1-yl)quinazolin-6-yl)pyridin-3-yl)benzenesulfonamide] | – | 0.0314 | 0.0091 | – |
| CC(=O)/C=C/C(=O)N1CCN(c2ncnc3ccc(-c4cnc(OCC(F)(F)F)c(NS(=O)(=O)c5ccc(F)cc5F)c4)cc23)CC1 [Example 159, (E)-2,4-difluoro-N-(5-(4-(4-(4-oxopent-2-enoyl)piperazin-1-yl)quinazolin-6-yl)-2-(2,2,2-trifluoroethoxy)pyridin-3-yl)benzenesulfonamide] | – | – | – | IC50 (PI3Kδ; Table 4): 0.0917 µM; IC50 (PI3Kα; Table 4): 0.0118 µM |
| COc1ncc(-c2ccc3ncnc(N4CCN(C(=O)/C=C/C(C)=O)CC4)c3c2)cc1NS(C)(=O)=O [Example 170, (E)-N-(2-methoxy-5-(4-(4-(4-oxopent-2-enoyl)piperazin-1-yl)quinazolin-6-yl)pyridin-3-yl)methane-sulfonamide] | – | – | – | IC50 (PI3Kδ; Table 4): 0.017 µM; IC50 (PI3Kα; Table 4): 0.007 µM |
| COC(=O)c1ncc(-c2ccc3ncnc(N4CCN(C(=O)/C=C/C(C)=O)CC4)c3c2)cc1NS(=O)(=O)c1ccc(F)cc1F [Example 181, methyl (E)-3-((2,4-difluoro-phenyl)sulfonamido)-5-(4-(4-(4-oxopent-2-enoyl)piperazin-1-yl)quinazolin-6-yl)picolinate] | – | – | – | IC50 (PI3Kδ; Table 4): 0.0204 µM; IC50 (PI3Kα; Table 4): 0.00073 µM |
| [2H]C([2H])([2H])Oc1ncc(-c2ccc3ncnc(N4CCN(C(=O)/C=C/C(C)=O)CC4)c3c2)cc1NS(=O)(=O)c1ccc(F)cc1F [Example 191, (E)-2,4-difluoro-N-(2-(methoxy-d3)-5-(4-(4-(4-oxopent-2-enoyl)piperazin-1-yl)quinazolin-6-yl)pyridin-3-yl)benzene-sulfonamide] | 0.143 | – | – | IC50 (PI3Kδ; Table 4): 0.0167 µM |
